Source: patent US6783949B1, “Processes for determining whether a test substance contains lipases or lipase inhibitors” (Aventis Pharma Deutschland GmbH, priority 1999, dated 2004)
Read-outs that look alike come from different tables or passages of the source.

How the values were obtained:
Assay type in all cases: biochemical
[1] = target: T1, HSL (Rattus norvegicus, UniProt P15304); assay: Tributyrin assay; conditions: Example 6, Table 6; n=5, mean±SD
T1 construct: The partially purified HSL can be stored at −70° C. for 4 to 6 weeks; from tissue; host or cells: rat epididymal fat cells (male Wistar rats)
T1 sequence (P15304 1-768 isoform P15304-2): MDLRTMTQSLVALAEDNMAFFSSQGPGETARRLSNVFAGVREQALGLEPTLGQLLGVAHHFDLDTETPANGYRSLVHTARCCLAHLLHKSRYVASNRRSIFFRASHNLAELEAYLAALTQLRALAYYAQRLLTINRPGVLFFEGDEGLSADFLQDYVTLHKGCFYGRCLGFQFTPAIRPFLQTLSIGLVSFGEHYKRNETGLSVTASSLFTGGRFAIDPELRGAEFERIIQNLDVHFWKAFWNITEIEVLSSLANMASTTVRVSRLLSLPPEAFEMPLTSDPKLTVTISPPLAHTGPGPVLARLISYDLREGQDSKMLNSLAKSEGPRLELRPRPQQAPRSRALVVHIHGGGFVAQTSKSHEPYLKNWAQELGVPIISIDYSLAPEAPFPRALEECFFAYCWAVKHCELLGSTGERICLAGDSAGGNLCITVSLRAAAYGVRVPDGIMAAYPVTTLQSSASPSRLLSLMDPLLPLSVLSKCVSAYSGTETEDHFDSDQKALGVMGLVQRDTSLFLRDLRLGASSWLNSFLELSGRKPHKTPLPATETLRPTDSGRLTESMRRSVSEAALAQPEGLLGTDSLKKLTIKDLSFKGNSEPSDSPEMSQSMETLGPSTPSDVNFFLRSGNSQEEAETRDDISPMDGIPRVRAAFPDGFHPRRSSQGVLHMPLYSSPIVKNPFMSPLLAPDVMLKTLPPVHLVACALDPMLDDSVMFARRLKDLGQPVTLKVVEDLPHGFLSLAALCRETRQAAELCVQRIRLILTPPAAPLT
Protocol: Isolated rat fat cells are obtained from epididymal fatty tissue from untreated male rats (Wistar, 220-250 g) by collagenase treatment according to published processes. The fat cells from 10 rats are washed three times by flotation with 50 ml each of homogenization buffer ([…], pH 7.4, 0.25 M sucrose, 1 mM ethylenediamine-N,N,N′,N′-tetraacetic acid (EDTA), 1 mM dithiothreitol (DTT), 10 μg/ml of leupeptin, 10 μg/ml of antipain, 20 μg/ml of pepstatin) and finally taken up in 10 ml of homogenization buffer. The fat cells are homogenized in a Teflon-in-glass homogenizer (Braun-Melsungen) by 10 strokes at 1500 rpm and 15° C. The homogenizate is centrifuged (Sorvall SM24 tubes, 5000 rpm, 10 min, 4° C.). […]
For the preparation of the substrate, 5 μCi of [1-^14C]tributyrin (in toluene) are added to 1 ml of 20 mM unlabeled tributyrin (in acetonitrile). […] An equivalent volume (1 ml) of the upper phase is taken and the radioactivity is determined by liquid scintillation measurement.
Substances are customarily tested in four independent batches. The inhibition of the enzymatic activity of the HSL by a test substance is determined by comparison with an uninhibited control reaction. The IC50 value is calculated by means of an inhibition curve using at least 10 concentrations of the test substance. […]

[2] = target: PC-specific phospholipase from Bacillus cereus (Bacillus cereus, UniProt P09598); conditions: for Increase in the absorption at 481 nm: PLC, 60 min, NAG 0.05 mg/ml
[3] = target: T2, lipases, preferably HSL (Rattus norvegicus, UniProt P15304); assay: Synthesized NBD-acylglycerides as substrates of lipases
T2 sequence (P15304 1-768 isoform P15304-2): T1 sequence (P15304 1-768 isoform P15304-2)

[4] = tested on: bacterial lipase; assay: Cleavage of NAG by bacterial lipase; conditions: for Increase in the absorption at 481 nm: Bacterial lipase, 60 min, NAG 0.05 mg/ml

Sequence of PC-specific phospholipase from Bacillus cereus (P09598 39-283 limits assumed): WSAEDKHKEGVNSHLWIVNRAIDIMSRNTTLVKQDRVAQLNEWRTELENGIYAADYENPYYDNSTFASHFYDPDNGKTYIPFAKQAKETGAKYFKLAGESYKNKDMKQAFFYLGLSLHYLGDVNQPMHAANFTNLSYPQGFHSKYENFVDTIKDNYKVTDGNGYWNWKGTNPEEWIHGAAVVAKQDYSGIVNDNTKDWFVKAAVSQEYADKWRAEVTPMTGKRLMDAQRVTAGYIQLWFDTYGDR

Structure (SMILES): O=C(CCCCCCCCCCCNc1ccc([N+](=O)[O-])c2nonc12)OCC(O)CO (racemic) [Compound 3]
- IC50 [1]: > 100 µM

Structure (SMILES): O=C(CCCCCCCCCCCNc1ccc([N+](=O)[O-])c2nonc12)OCC(O)CO (stereo not drawn) [Compound (3)]
- Increase in the absorption at 481 nm ([2]; enzyme 10 arb. units): 0 arb. units
- Increase in the absorption at 481 nm ([2]; enzyme 20 arb. units): 1 ± 1 arb. units
- Increase in the absorption at 481 nm ([2]; enzyme 50 arb. units): 2 ± 2 arb. units
- Increase in the absorption at 481 nm ([2]; enzyme 75 arb. units): 2 ± 1 arb. units
- Increase in the absorption at 481 nm ([2]; enzyme 100 arb. units): 3 ± 1 arb. units
- Increase in the absorption at 481 nm ([2]; enzyme 150 arb. units): 3 ± 1 arb. units
- Increase in the absorption at 481 nm ([2]; enzyme 200 arb. units): 5 ± 2 arb. units
- Increase in the absorption at 481 nm ([2]; enzyme 250 arb. units): 5 ± 2 arb. units
- Increase in the absorption at 481 nm ([2]; enzyme 300 arb. units): 7 ± 3 arb. units
- Increase in the absorption at 481 nm ([2]; enzyme 400 arb. units): 10 ± 3 arb. units
- Activity relative to HSL ([2]; bacterial PC-specific phospholipase, conditions optimized for HSL): virtually inactive
- Activity as substrate of lipases [3]: “best” substrate
- Increase in the absorption at 481 nm ([4]; enzyme 10 arb. units): 36 ± 7 arb. units
- Increase in the absorption at 481 nm ([4]; enzyme 20 arb. units): 81 ± 10 arb. units
- Increase in the absorption at 481 nm ([4]; enzyme 50 arb. units): 148 ± 18 arb. units
- Increase in the absorption at 481 nm ([4]; enzyme 75 arb. units): 238 ± 29 arb. units
- Increase in the absorption at 481 nm ([4]; enzyme 100 arb. units): 341 ± 39 arb. units
- Increase in the absorption at 481 nm ([4]; enzyme 150 arb. units): 467 ± 57 arb. units
- Increase in the absorption at 481 nm ([4]; enzyme 200 arb. units): 748 ± 70 arb. units
- Increase in the absorption at 481 nm ([4]; enzyme 250 arb. units): 904 ± 83 arb. units
- Increase in the absorption at 481 nm ([4]; enzyme 300 arb. units): 1056 ± 143 arb. units
- Increase in the absorption at 481 nm ([4]; enzyme 400 arb. units): 1270 ± 187 arb. units
- Activity relative to HSL ([4]; bacterial lipase, conditions optimized for HSL): 25%
